In patent US12258368B2, “Disulfide-linked reversible terminators” (CENTRILLION TECHNOLOGY HOLDINGS CORPORATION, priority 2018, dated 2025):

Tested on: DNA polymerase ("CENT1")
Assay: Enzymatic incorporation (primer extension) into a growing DNA chain, with runaway reaction
Format: biochemical
Details: for blockage of further extension after incorporation of the terminator: "runaway" reaction in the presence of all four unmodified dNTPs and a polymerase, lane 4; for further extension by the next base added after the cleavage: lane 6; for enzymatic incorporation: in the presence of DNA polymerase ("CENT1"), lane 3

| SMILES | blockage of further extension after incorporation of the terminator | further extension by the next base added after the cleavage | enzymatic incorporation | continued extension in a "runaway" reaction after cleavage (all four unmodified dNTPs and a DNA polymerase, FIG. 4 lanes 7 and 8) |
| --- | --- | --- | --- | --- |
| CC(=O)SCO[C@H]1C[C@H](n2cc(C#CCNC(=O)OC(C)(C)C)c(=O)[nH]c2=O)O[C@@H]1COP(=O)(O)OP(=O)(O)OP(=O)(O)O [compound 60, S-((((2R,3S,5R)-5-(5-(3-((tert-butoxycarbonyl)amino)prop-1-yn-1-yl)-2,4-dioxo-3,4-dihydropyrimidin-1 (2H)-yl)-2-(((hydroxy((hydroxy(phosphonooxy)phosphoryl)oxy)phosphoryl)oxy)methyl)tetrahydrofuran-3-yl)oxy)methyl) ethanethioate] | blockage of further extension after incorporation of the terminator | further extension by the next base added | can be used in enzymatic incorporation | – |
| CSSCO[C@@H]1C[C@H](n2cc(C#CCNC(=O)OCCSSCCNC(=O)c3ccc(C4=c5cc6c(cc5Oc5cc7c(cc54)C(CS(=O)(=O)O)=CC(C)(C)N7)=NC(C)(C)C=C6CS(=O)(=O)O)cc3C(=O)O)c(=O)[nH]c2=O)O[C@@H]1COP(=O)(O)OP(=O)(O)OP(=O)(O)O [compound 75, (6-(3-carboxy-4-((2-((2-(((3-(1-((2R,4R,5R)-5-(((hydroxy((hydroxy(phosphonooxy)phosphoryl)oxy)phosphoryl)oxy)methyl)-4-((methyldisulfaneyl)methoxy)tetrahydrofuran-2-yl)-2,4-dioxo-1,2,3,4-tetrahydropyrimidin-5-yl)prop-2-yn-1-yl)carbamoyl)oxy)ethyl)disulfaneyl)ethyl)carbamoyl)phenyl)-2,2,10,10-tetramethyl-8-(sulfomethyl)-10,11-dihydro-2H-pyrano[3,2-g:5,6-g′]diquinolin-1-ium-4-yl)methanesulfonate] | excellent blockage | further extension with on base added | excellent enzymatic incorporation | continued extension |
